Source: US6451834B1, “Indeno[1,2-c]-, naphtho[1,2-c]- and benzo[6,7]cyclohepta[1,2-c]pyrazole derivatives” (BASF Aktiengesellschaft, priority 1997, dated 2002)

Assays:
[1] = tested on: Human umbilical vein endothelial cells (HUVEC); assay: HUVEC mitogenesis assay; assay type: cell-based; settings: 50 ng/ml VEGF, tritiated thymidine, read-out: VEGF-Stimulated Mitogenesis IC50
Protocol: Human umbilical vein endothelial cells (HUVEC) were cultured in EGM-Complete Media (endothelial growth media supplemented with 10% FBS, hydrocortisone, epidermal growth factor and bovine brain extract as per the supplier's directions). Cells, media and supplements were purchased from Clonetics (San Diego, Calif.). The HUVEC Mitogenesis Assay was used to measure inhibition of mitogenesis induced by VEGF, FGF or Complete Media. Cells were harvested by trypsinization, washed once and suspended in Complete Media (CM) at a concentration of 5,000 cells/0.15 ml. Cells were seeded into 96-well plates at 5,000 cells/well and incubated at 37 C for 24 hours. Cells were washed once with serum-free media (SFM) and incubated under serum-free conditions for 24 hours. Non-serum starved control wells were cultured with CM during this period. Test compounds were prepared as 10 mM stock solutions in DMSO, diluted in SFM and added to wells over a concentration range (0.005-50 μM final concentration). Cells were incubated for 1 hour prior to addition of 50 ng/ml VEGF or FGF (R & D Systems, Minneapolis, Minn.). Complete media stimulated wells received the test compound and stimulus simultaneously. […] Plates were harvested onto filter mats with a Tomtec Harvester and counted with a Betaplate liquid scintillation counter (Wallac).

KDR tyrosine kinase = biological target: T1, KDR tyrosine kinase (Homo sapiens, UniProt P35968); assay: KDR in vitro ELISA; assay type: biochemical; settings: ATP 5 μM
T1 construct: KDR intra-cellular domain (aa789-1354); poly-His6 (N); made in house; host or cells: SF-9 insect cells, recombinant baculovirus (pVL1393)
T1 sequence (P35968 789-1354): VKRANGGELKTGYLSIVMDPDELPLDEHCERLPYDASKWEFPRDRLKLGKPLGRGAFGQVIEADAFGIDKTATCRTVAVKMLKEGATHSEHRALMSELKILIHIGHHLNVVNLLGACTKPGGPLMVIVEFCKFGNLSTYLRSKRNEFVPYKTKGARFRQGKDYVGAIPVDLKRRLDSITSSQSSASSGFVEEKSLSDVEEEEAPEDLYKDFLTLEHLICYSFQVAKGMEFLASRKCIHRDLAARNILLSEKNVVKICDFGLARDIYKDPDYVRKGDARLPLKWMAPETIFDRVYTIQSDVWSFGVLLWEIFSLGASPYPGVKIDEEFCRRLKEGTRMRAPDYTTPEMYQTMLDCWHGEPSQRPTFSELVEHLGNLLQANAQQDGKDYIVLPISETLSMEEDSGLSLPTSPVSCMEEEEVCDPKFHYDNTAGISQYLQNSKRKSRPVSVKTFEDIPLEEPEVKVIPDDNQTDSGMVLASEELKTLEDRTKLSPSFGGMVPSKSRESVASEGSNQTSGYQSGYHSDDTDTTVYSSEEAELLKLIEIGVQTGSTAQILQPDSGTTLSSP
Protocol: The following procedure was used to assay the inhibitory effect of compounds of this invention on KDR tyrosine kinase activity:
Dilute PGT stock (50 mg/ml, frozen) in PBS to a 250 μg/ml. […] Add 125 μl PBS to blank wells. Cover with sealing tape and incubate overnight 37° C. Wash 1× with 250 μl washing buffer and dry for about 2 hrs in 37° C. dry incubator.
Prepare inhibitor solutions at a 4× concentration in 20% DMSO in water.
Prepare enzyme solution so that desired units are in 50 μl, e.g. for KDR make to 1 ng/μl for a total of 50 ng per well in the reactions. Store on ice.
Make 4× ATP solution to 20 μM from 100 mM stock in water. Store on ice.
Add 50 μl of the enzyme solution per well.
Add 25 μl 4× ATP for inhibitor assay.
Incubate for 10 minutes at room temperature.
Stop reaction by adding 50 μl 0.05N HCl per well.
Dilute 1 mg/ml aliquot of PY20-HRP (Pierce) antibody to 50 ng/ml in 0.1% BSA in PBS by a 2 step dilution (100×, then 200×).
Add 100 μl Ab per well. Incubate 1 hr at room temp. Incubate 1 hr at 4C.
Prepare TMB substrate and add 100 μl per well.
Monitor OD at 650 nm until 0.6 is reached.
Stop with 1M Phosphoric acid. Shake on plate reader.

Row | Compound | melting point [°C] | also measured
1 | c1csc(-c2n[nH]c3c2Cc2ccccc2-3)c1 |  | IC50 [1]: 2 µM
2 | C1=NC(n2nc(-c3ccccc3)cc2-c2ccccc2)NC1 (centres unmarked) |  | IC50 (KDR tyrosine kinase): > 100 µM
3 | Cc1c2c(nn1-c1ccccc1)-c1ccccc1C2=O |  | IC50 (KDR tyrosine kinase): > 100 µM
4 | COc1ccc2c(c1)Cc1c(-c3cccs3)n[nH]c1-2 [Example 8, 6-methoxy-3-(2-thienyl)-1,4-dihydroindeno[1,2-c]pyrazole] | 212 to 214 | 
5 | c1csc(-c2n[nH]c3c2CCc2ccccc2-3)c1 [Example 3, 3-(2-Thienyl)-4,5-dihydro-1H-benz[g]indazole] | 206 to 208 | 

More lines, main results first:

Row | melting point [°C] | Compound | also measured
6 | 247 | COc1ccc(-c2n[nH]c3c2Cc2ccccc2-3)cc1 [Example 6, 3-(4-methoxyphenyl)-1,4-dihydroindeno[1,2-c]pyrazole] | 
7 | 195 to 197 | c1coc(-c2n[nH]c3c2Cc2ccccc2-3)c1 [Example 9, 3-(2-furyl)-1,4-dihydroindeno[1,2-c]pyrazole] | 
8 | 267 to 269 | Cc1ccc(-c2n[nH]c3c2Cc2ccccc2-3)cc1 [Example 7, 3-(p-tolyl)-1,4-dihydroindeno[1,2-c]pyrazole] | 
9 | 219 to 220 | c1ccc2c(c1)Cc1c(-c3ccsc3)n[nH]c1-2 [Example 29, 3-(3-thienyl)-1,4-dihydroindeno[1,2-c]pyrazole] | 
10 | 223 to 224 | c1cncc(-c2n[nH]c3c2Cc2ccccc2-3)c1 [Example 1, 3-(3-Pyridyl)-1,4-dihydroindeno[1,2-c]pyrazole] | 
11 | 172 to 174 | COc1cccc(-c2n[nH]c3c2Cc2ccccc2-3)c1 [Example 5, 3-(3-methoxyphenyl)-1,4-dihydroindeno[1,2-c]pyrazole] | 
